From patent US20090252716A1, “METHODS FOR IDENTIFYING NUCLEAR RECEPTOR/LIGAND COMBINATIONS FOR TARGETING BRAIN TUMOR STEM CELLS AND FOR THEIR USE” (Clarian Health Partners, Inc. d/b/a Methodist Research …, priority 2008, published 2009)

Assays:
[1] = system: U87MG and T98G human glioma cells, their respective BTSC's, and CD133+ cells; assay: Proliferation of glioma cells, BTSC's and CD133+ cells, result in words; assay type: cell-based
Method: (§1) The use of nuclear receptor agonists in the treatment of brain tumors was examined by testing the effect of the specific ligands on the proliferation of brain tumor and BTSC'S. Prior to studying the anti-tumor effect of melatonin, it was necessary to determine the viability of glioma and BTSC's in the cultures used in this study. […] Their proliferation was measured by WST-1 assay. The ligands for all six nuclear receptors induced anti-proliferative activity in brain tumor stem cells as well as human glioma cells. It was also noted that the selected nuclear receptor agonists induced anti-tumor activity in brain tumor stem cells and that the different agonists for the highly altered nuclear hormone receptors provided different levels of inhibition for brain tumor cells and BTSC's in cultures. As a result, the nuclear hormone receptors having altered expression and activation profile in BTSC can be selected to specifically target BTSC's. Additional information regarding the individual studies is provided below:
(§2) Proliferation assay. Proliferation of gliosphere cells was measured using WST-1 assay (Roche Applied Sciences, Indianapolis, Ind.) and ^3H thymidine uptake assay. Briefly, T98G and U87MG glioma and gliosphere cells were cultured in 96-well tissue culture plates (1×10^4/200 μl/well) in neurobasal medium with B27 serum supplement in the presence of 10 ng/ml EGF+bFGF and increasing doses of nuclear receptors in 5% CO2-incubator at 37° C. After 48 hrs, WST-1 reagent ([…]) was added and the absorbance was measured at 460 nm using 2100 microplate reader (Alpha Diagnostics Inc., San Antonio, Tex.) as a measure of viable cell count. This assay is based on the cleavage of the tetrazolium salt, WST-1, by mitochondrial dehydrogenases in viable cells and a decrease in OD corresponds to decrease in viable cell count. In some experiments, ^3H thymidine (0.5 μCi/ml) was added at 48 hours, the cells harvested after 72 hours using a Tomtech harvester 96 (Hamden, Conn., USA) and the amount of ^3H thymidine uptake counted on a Perkin Elmer Microbeta liquid scintillation counter to provide a measure of proliferation.

U87MG tumorspheres = assay: Tumorsphere formation from U87MG cells in NBM; assay type: cell-based, human; conditions: NBM with B27, EGF+bFGF
Method: FIG. 9B, first panel, illustrates cells of U87MG cultured in DMEM. Cells cultured in NBM with B27 supplement in the presence of EGF+bFGF developed into tumorspheres within 3-5 days (see FIG. 9A, middle panel).
(§3) Gliosphere culture. To generate gliospheres, the following standardized method was utilized. Briefly, U87MG and T98G glioblastoma cells were dissociated from DMEM cultures using trypsin-EDTA solution and reseeded in neurobasal medium (NBM) supplemented with B27 in the presence of 10 ng/ml bFGF and EGF. The cells (5×10^4/ml/well) were cultured in 12 well plates in 5% CO2-incubator at 37° C. with a medium change of every 2-3 days. The cells were photographed (200× and 400×) under phase contrast microscope (AX70, Olympus Optical, Japan) after 10-12 days. The primary human glioblastoma cells were also dissociated from DMEM using trypsin-EDTA. The cells were cultured (1×10^5 cells/ml/well) in neurobasal medium (NBM) supplemented with B27 in the presence of 10 ng/ml of bFGF and EGF in 12 well plates in 5% CO2-incubator at 37° C. The resulting tumorspheres were photographed under light microscope.

T98G tumorspheres = assay: Tumorsphere formation from T98G glioblastoma cells in NBM; assay type: cell-based, human; conditions: NBM with B27, EGF+bFGF
Method: Initially culture conditions were established for expanding BTSC's as tumorspheres from brain tumor cells in culture. […] The resulting tumorspheres increased substantially in size within 7 to 10 days. FIG. 1 illustrates typical glioblastoma cells cultured in DMEM supplemented with 10% FBS and the corresponding tumorspheres cultured in neurobasal medium (NBM) with B27 supplement and 10 ng/ml EGF+bFGF. The tumorspheres illustrated in FIG. 1 were photographed after 10 days (200×).
as §3

U87-CD133+ cells = assay: WST-1 proliferation assay, U87-CD133+ cells; assay type: cell-based; conditions: Homo sapiens, anti-tumor activity, 48 hours
Method: as §1
(§4) Isolation and expansion of CD133+ BTSC: The CD133+ BTSC were isolated from human glioblastoma cells by magnetic bead technique using CD133 antibody (Miltenyi Biotec, Auburn, Calif., USA). The U87MG and T98G glioma cells and tumor spheres expanded as described above were dissociated by treatment with Trypsin-EDTA solution at 37° C. for 10 minutes. The cells (1×10^7 cells) were washed in cold sterile PBS, re-suspended in 100 μl blocking buffer (PBS, pH 7.2, 0.5% BSA, 2 mM EDTA) with 50 μl of FcR blocking reagents (Miltenyi Biotech, Auburn, Calif., USA) and incubated at 4° C. for 30 minutes. The cells were washed and re-suspended in 200 μl of anti-PE microbeads in the buffer and incubated at 4° C. for 30 minutes. The CD133+ cells were separated by passing through an LS column in the midi Macs separation unit. The column effluent was collected to provide a CD133 negative population. The columns were washed with buffer, removed from the Mac separation unit and placed in a sterile 15 ml tube. […] The cells obtained were counted and expanded in culture or used directly for the experiments described herein.
(§5) Proliferation assay. Proliferation of gliosphere cells was measured using WST-1 assay (Roche Applied Sciences, Indianapolis, Ind.) and ^3H thymidine uptake assay. […] After 48 hrs, WST-1 reagent ([…]) was added and the absorbance was measured at 460 nm using 2100 microplate reader (Alpha Diagnostics Inc., San Antonio, Tex.) as a measure of viable cell count. […] In some experiments, ^3H thymidine (0.5 μCi/ml) was added at 48 hours, the cells harvested after 72 hours using a Tomtech harvester 96 (Hamden, Conn., USA) and the amount of ^3H thymidine uptake counted on a Perkin Elmer Microbeta liquid scintillation counter to provide a measure of proliferation.

[2] = system: U87 BTSC's (brain tumor stem cells); assay: WST-1 proliferation assay, U87 BTSC's; assay type: cell-based; conditions: Homo sapiens, anti-tumor activity, 48 hours
Method: (§6) The use of nuclear receptor agonists in the treatment of brain tumors was examined by testing the effect of the specific ligands on the proliferation of brain tumor and BTSC'S. Prior to studying the anti-tumor effect of melatonin, it was necessary to determine the viability of glioma and BTSC's in the cultures used in this study. […] Their proliferation was measured by WST-1 assay. […] Additional information regarding the individual studies is provided below:
as §3, §5

T98G-CD133+ cells = assay: WST-1 proliferation assay, T98G-CD133+ cells; assay type: cell-based; conditions: Homo sapiens, anti-tumor activity, 48 hours
Method: as §1, §4, §5

T98G human glioma cells = assay: WST-1 proliferation assay, T98G glioma cells; assay type: cell-based; conditions: anti-tumor activity, 48 hours, read-out: EC50, T98-glioma
Method: as §1
(§7) Cell culture. The U87MG and T98G brain tumor cell-lines, established from human glioblastoma (Ponten, et al., 1968) were obtained from American Type Culture Collection (ATCC, Manassas, Va.). The cells were cultured in Dulbecco's Modified Eagle Medium (DMEM) (Invitrogen, California, USA) supplemented with 10% FBS, 1 mM Sodium pyruvate, 100 U/ml penicillin G, 100 μg/ml Streptomycin, 2 mM glutamine, 1 mM MEM nonessential amino acids and 50 μM 2-mercaptoethanol in 5% CO2 incubator at 37° C. The cells were dissociated using 0.25% trypsin, 0.53 mM EDTA solution and sub-cultured once in 3-5 days. Primary brain tumor tissue/cells were also obtained from the tissue repository at Methodist Research Institute and cultured (1×10^5 cells/ml/well) in DMEM medium supplemented with 10% FBS and sub-cultured once in 10-12 days.
as §2, with “This assay is based on the cleavage of the tetrazolium salt, WST-1, by mitochondrial dehydrogenases in viable cells and a decrease in OD corresponds to decrease in viable cell count.” left out

U87MG human glioma cells = assay: WST-1 proliferation assay, U87 glioma cells; assay type: cell-based; conditions: U-87 MG, anti-tumor activity, 48 hours
Method: as §1, §7
as §2, with “This assay is based on the cleavage of the tetrazolium salt, WST-1, by mitochondrial dehydrogenases in viable cells and a decrease in OD corresponds to decrease in viable cell count.” left out

[3] = system: T98G BTSC's (brain tumor stem cells); assay: WST-1 proliferation assay, T98G BTSC's; assay type: cell-based; conditions: Homo sapiens, anti-tumor activity, 48 hours, read-out: EC50, T98-BTSC
Method: as §6, §3, §5

Structure (SMILES)	proliferation of glioma cells and BTSC's [1]	tumorsphere size and number, U87MG (U87MG tumorspheres)	number and size of T98G tumorspheres (T98G tumorspheres)	EC50 (U87-CD133+ cells)	EC50 [2]	EC50 (T98G-CD133+ cells)	EC50 (T98G human glioma cells)	EC50 (U87MG human glioma cells)	EC50 [3]
CCCCCC=CC=C1C(=O)C=C[C@@H]1CC=CCCCC(=O)O [15d-PGJ2, 15-deoxy Δ^12,14-prostaglandin J2]	inhibited the proliferation	significantly decreased							
CCCC(=O)SCCNC(=O)CCNC(=O)[C@H](O)C(C)(C)COP(=O)(O)OP(=O)(O)OC[C@H]1O[C@@H](n2cnc3c(N)ncnc32)[C@H](O)[C@@H]1OP(=O)(O)O [Butyryl CoA]	dose-dependent decrease in the proliferation		significant and dose-dependent decrease	17600 ± 290 nM	72.5 ± 1.57 µM	54700 ± 5760 nM	85 ± 5.59 µM	20.3 ± 0.57 µM	85.5 ± 22.4 µM
Clc1ccc(-c2nc3sccn3c2/C=N/OCc2ccc(Cl)c(Cl)c2)cc1 [CITCO]	inhibits the proliferation		significant and dose-dependent decrease						
O=C(O)Cc1cccc(OCCCN(Cc2cccc(C(F)(F)F)c2Cl)CC(c2ccccc2)c2ccccc2)c1 [GW3965]	inhibits the proliferation		significant and dose-dependent decrease	2960 ± 210 nM	1.55 ± 0.43 µM	3280 ± 640 nM	4.85 ± 1 µM	4.22 ± 0.23 µM	12.2 ± 3.04 µM
COc1ccc2[nH]cc(CCNC(C)=O)c2c1 [Melatonin]	inhibits the proliferation		significant and dose-dependent decrease	2600 ± 250 nM	7.91 ± 1.34 µM	2450 ± 430 nM	31 ± 12 µM	18.66 ± 0.18 µM	44.7 ± 6.18 µM
CO[C@H]1/C=C/O[C@@]2(C)Oc3c(C)c(O)c4c(O)c(c(/C=N/N5CCN(C)CC5)c(O)c4c3C2=O)NC(=O)/C(C)=C\C=C\[C@H](C)[C@H](O)[C@@H](C)[C@@H](O)[C@@H](C)[C@H](OC(C)=O)[C@@H]1C [Rifampicin]				1200 ± 200 nM		1990 ± 470 nM	12.8 ± 1.97 µM	25.4 ± 4 µM	
